Assay results taken from patent publication US20160367623A1, “AGONISTS OF GUANYLATE CYCLASE USEFUL FOR THE TREATMENT OF GASTROINTESTINAL DISORDERS, INFLAMMATION, CANCER AND OTHER DISORDERS” (priority 2015, published 2016).
Bridge positions count the residues as written; N and C are the ends. Ends that are not written are not given here.

System: patients with chronic idiopathic constipation (CIC)
Assay: Second phase 3 CIC trial: change from baseline in CSBMs/week
Assay type: in vivo, human
[1] = Post-Treatment Week 13, 3 mg, ITT Population, MRA
[2] = Post-Treatment Week 13, 3 mg, ITT Population-Excluding Duplicate Patients, MRA
[3] = Post-Treatment Week 13, 6 mg, ITT Population, MRA
[4] = Post-Treatment Week 13, 6 mg, ITT Population-Excluding Duplicate Patients, MRA
[5] = Post-Treatment Week 14, 3 mg, ITT Population, MRA
[6] = Post-Treatment Week 14, 3 mg, ITT Population-Excluding Duplicate Patients, MRA
[7] = Post-Treatment Week 14, 6 mg, ITT Population, MRA
[8] = Post-Treatment Week 14, 6 mg, ITT Population-Excluding Duplicate Patients, MRA
[9] = Week 1, 3 mg, ITT Population, MRA
[10] = Week 1, 3 mg, ITT Population-Excluding Duplicate Patients, MRA
[11] = Week 1, 6 mg, ITT Population, MRA
[12] = Week 1, 6 mg, ITT Population-Excluding Duplicate Patients, MRA
[13] = Week 2, 3 mg, ITT Population, MRA
[14] = Week 2, 3 mg, ITT Population-Excluding Duplicate Patients, MRA
[15] = Week 2, 6 mg, ITT Population, MRA
[16] = Week 2, 6 mg, ITT Population-Excluding Duplicate Patients, MRA
[17] = Week 3, 3 mg, ITT Population, MRA
[18] = Week 3, 3 mg, ITT Population-Excluding Duplicate Patients, MRA
[19] = Week 3, 6 mg, ITT Population, MRA

Asn^1-Asp^2-Glu^3-Cys^4-Glu^5-Leu^6-Cys^7-Val^8-Asn^9-Val^10-Ala^11-Cys^12-Thr^13-Gly^14-Cys^15-Leu^16 (NDECELCVNVACTGCL; disulfide 4-12, 7-15) [Plecanatide, uroguanylin analogue, guanylate cyclase-C agonist; (C4:C12, C7:C15) bicycle peptide]
Change from Baseline in CSBMs, LS Mean (SE) (6 mg, overall average estimate across the 12-week treatment period, All Randomized (includes Duplicate Patients)): 2.14 (0.129) CSBMs/week | Change from Baseline in CSBMs, Mean (SD) (Active Combined, Post-Treatment Week 13, All Randomized (includes Duplicate Patients)): 1.73 (2.552) CSBMs/week | Change from Baseline in CSBMs, Mean (SD) (Active Combined, Post-Treatment Week 14, All Randomized (includes Duplicate Patients)): 1.69 (2.591) CSBMs/week | Change from Baseline in CSBMs, Mean (SD) (Active Combined, Week 1, All Randomized (includes Duplicate Patients)): 1.73 (2.803) CSBMs/week | Change from Baseline in CSBMs, Mean (SD) (Active Combined, Week 2, All Randomized (includes Duplicate Patients)): 1.83 (3.037) CSBMs/week | Change from Baseline in CSBMs, Mean (SD) (Active Combined, Week 3, All Randomized (includes Duplicate Patients)): 1.89 (3.005) CSBMs/week | Change from Baseline in CSBMs, Difference from Placebo [1]: 0.43 CSBMs/week | Change from Baseline in CSBMs, LS Mean (SE) [1]: 1.94 (0.134) CSBMs/week | Change from Baseline in CSBMs, Mean (SD) [1]: 1.88 (2.733) CSBMs/week | Change from Baseline in CSBMs, Difference from Placebo [2]: 0.46 CSBMs/week | Change from Baseline in CSBMs, LS Mean (SE) [2]: 1.96 (0.135) CSBMs/week | Change from Baseline in CSBMs, Mean (SD) [2]: 1.90 (2.743) CSBMs/week | Change from Baseline in CSBMs, Difference from Placebo [3]: 0.20 CSBMs/week | Change from Baseline in CSBMs, LS Mean (SE) [3]: 1.70 (0.134) CSBMs/week | Change from Baseline in CSBMs, Mean (SD) [3]: 1.64 (2.393) CSBMs/week | Change from Baseline in CSBMs, Difference from Placebo [4]: 0.18 CSBMs/week | Change from Baseline in CSBMs, LS Mean (SE) [4]: 1.69 (0.133) CSBMs/week | Change from Baseline in CSBMs, Mean (SD) [4]: 1.62 (2.339) CSBMs/week | Change from Baseline in CSBMs, Mean (SD) (Post-Treatment Week 13, Active Combined, ITT Population-Excluding Duplicate Patients, MRA): 1.76 (2.547) CSBMs/week | Change from Baseline in CSBMs, Mean (SD) (Post-Treatment Week 13, Active Combined, ITT Population, MRA): 1.76 (2.567) CSBMs/week | Change from Baseline in CSBMs, Difference from Placebo [5]: 0.43 CSBMs/week | Change from Baseline in CSBMs, LS Mean (SE) [5]: 1.82 (0.136) CSBMs/week | Change from Baseline in CSBMs, Mean (SD) [5]: 1.78 (2.620) CSBMs/week | Change from Baseline in CSBMs, Difference from Placebo [6]: 0.43 CSBMs/week | Change from Baseline in CSBMs, LS Mean (SE) [6]: 1.83 (0.137) CSBMs/week | Change from Baseline in CSBMs, Mean (SD) [6]: 1.78 (2.628) CSBMs/week | Change from Baseline in CSBMs, Difference from Placebo [7]: 0.34 CSBMs/week | Change from Baseline in CSBMs, LS Mean (SE) [7]: 1.73 (0.137) CSBMs/week | Change from Baseline in CSBMs, Mean (SD) [7]: 1.67 (2.616) CSBMs/week | Change from Baseline in CSBMs, Difference from Placebo [8]: 0.31 CSBMs/week | Change from Baseline in CSBMs, LS Mean (SE) [8]: 1.71 (0.136) CSBMs/week | Change from Baseline in CSBMs, Mean (SD) [8]: 1.64 (2.536) CSBMs/week | Change from Baseline in CSBMs, Mean (SD) (Post-Treatment Week 14, Active Combined, ITT Population-Excluding Duplicate Patients, MRA): 1.71 (2.582) CSBMs/week | Change from Baseline in CSBMs, Mean (SD) (Post-Treatment Week 14, Active Combined, ITT Population, MRA): 1.72 (2.616) CSBMs/week | Change from Baseline in CSBMs, Difference from Placebo [9]: 0.88 CSBMs/week | Change from Baseline in CSBMs, LS Mean (SE) [9]: 1.72 (0.153) CSBMs/week | Change from Baseline in CSBMs, Mean (SD) [9]: 1.75 (2.732) CSBMs/week | Change from Baseline in CSBMs, Difference from Placebo [10]: 0.88 CSBMs/week | Change from Baseline in CSBMs, LS Mean (SE) [10]: 1.75 (0.155) CSBMs/week | Change from Baseline in CSBMs, Mean (SD) [10]: 1.78 (2.752) CSBMs/week | Change from Baseline in CSBMs, Difference from Placebo [11]: 0.88 CSBMs/week | Change from Baseline in CSBMs, LS Mean (SE) [11]: 1.71 (0.151) CSBMs/week | Change from Baseline in CSBMs, Mean (SD) [11]: 1.72 (2.897) CSBMs/week | Change from Baseline in CSBMs, Difference from Placebo [12]: 0.87 CSBMs/week | Change from Baseline in CSBMs, LS Mean (SE) [12]: 1.74 (0.153) CSBMs/week | Change from Baseline in CSBMs, Mean (SD) [12]: 1.74 (2.911) CSBMs/week | Change from Baseline in CSBMs, Mean (SD) (Week 1, Active Combined, ITT Population-Excluding Duplicate Patients, MRA): 1.76 (2.832) CSBMs/week | Change from Baseline in CSBMs, Mean (SD) (Week 1, Active Combined, ITT Population, MRA): 1.74 (2.815) CSBMs/week | Change from Baseline in CSBMs, Difference from Placebo [13]: 0.86 CSBMs/week | Change from Baseline in CSBMs, LS Mean (SE) [13]: 1.82 (0.153) CSBMs/week | Change from Baseline in CSBMs, Mean (SD) [13]: 1.81 (2.963) CSBMs/week | Change from Baseline in CSBMs, Difference from Placebo [14]: 0.85 CSBMs/week | Change from Baseline in CSBMs, LS Mean (SE) [14]: 1.84 (0.155) CSBMs/week | Change from Baseline in CSBMs, Mean (SD) [14]: 1.82 (2.986) CSBMs/week | Change from Baseline in CSBMs, Difference from Placebo [15]: 0.85 CSBMs/week | Change from Baseline in CSBMs, LS Mean (SE) [15]: 1.81 (0.152) CSBMs/week | Change from Baseline in CSBMs, Mean (SD) [15]: 1.84 (3.158) CSBMs/week | Change from Baseline in CSBMs, Difference from Placebo [16]: 0.85 CSBMs/week | Change from Baseline in CSBMs, LS Mean (SE) [16]: 1.84 (0.154) CSBMs/week | Change from Baseline in CSBMs, Mean (SD) [16]: 1.85 (3.171) CSBMs/week | Change from Baseline in CSBMs, Mean (SD) (Week 2, Active Combined, ITT Population-Excluding Duplicate Patients, MRA): 1.84 (3.079) CSBMs/week | Change from Baseline in CSBMs, Mean (SD) (Week 2, Active Combined, ITT Population, MRA): 1.82 (3.061) CSBMs/week | Change from Baseline in CSBMs, Difference from Placebo [17]: 0.74 CSBMs/week | Change from Baseline in CSBMs, LS Mean (SE) [17]: 1.94 (0.153) CSBMs/week | Change from Baseline in CSBMs, Mean (SD) [17]: 1.94 (3.117) CSBMs/week | Change from Baseline in CSBMs, Difference from Placebo [18]: 0.74 CSBMs/week | Change from Baseline in CSBMs, LS Mean (SE) [18]: 1.96 (0.156) CSBMs/week | Change from Baseline in CSBMs, Mean (SD) [18]: 1.95 (3.143) CSBMs/week | Change from Baseline in CSBMs, Difference from Placebo [19]: 0.61 CSBMs/week | Change from Baseline in CSBMs, LS Mean (SE) [19]: 1.81 (0.152) CSBMs/week
